# Laboratory results as given in patent US20180044428A1, “COMPOSITIONS AND METHODS FOR ENHANCING THE EFFICACY OF CANCER THERAPY” (PROVIDENCE HEALTH & SERVICES-OREGON, priority 2015, published 2018).
# Assays:
# Format in all cases: in vivo, C57BL/6 mice
# Panc02 tumors = experiment: Panc02 pancreatic adenocarcinoma model, immunochemotherapy (tumor area, survival); conditions: gemcitabine 100 mg/kg i.p. twice weekly alone
# Protocol: The Panc02 murine pancreatic adenocarcinoma cell line (Priebe et al., 1992, Cancer Chemother Pharmacol; 29:485-9. C57BL/6) was kindly provided by Dr. Woo (Mount Sinai School of Medicine, N.Y.). 6-8 week old C57BL/6 mice were obtained from Charles River Laboratories (Wilmington, Mass.) for use in these experiments. All animal protocols were approved by the EACRI IACUC (Animal Welfare Assurance No. A3913-01).
# Mice bearing 10-14 day old tumors were treated with anti-OX40 (OX86, 250 μg intraperitoneally, BioXcell, West Lebanon, N.H.), anti-CTLA4 (9D9, 250 μg intraperitoneally, BioXcell) or the combination. Chemotherapy consisted of 100 mg/kg Gemcitabine (Eli Lilly and Co., Indianapolis, Ind.) intraperitoneally twice per week for 2 or 3 weeks. Anti-interleukin-4 (Anti-IL-4, 11B11, 100 μg intraperitoneally, BioXcell) was delivered intraperitoneally twice per week for 3 weeks.
# Data were analyzed and graphed using Prism (GraphPad Software, La Jolla, Calif.). Individual data sets were compared using Student's T-test. Analysis across multiple groups was performed using ANOVA with individual groups assessed using Tukey's comparison. Kaplan Meier survival curves were compared using a log-rank test.
# F4/80+ macrophages = experiment: Immunohistology for F4/80+ macrophages in Panc02 tumors; conditions: gemcitabine, tumors harvested after one week of treatment
# Protocol: For immunohistology, tumors were fixed overnight in Z7 zinc based fixative (Lykidis et al., 2007, Nucleic acids research; 35:e85). Tissue was then dehydrated through graded alcohol to xylene, incubated in molten paraffin, and then buried in paraffin. Sections (5 μm) were cut and mounted for analysis. Tissue sections were boiled in ethylenediaminetetraacetic acid (EDTA) buffer as appropriate for antigen retrieval. Primary antibody binding was visualized with AlexaFluor 488 conjugated secondary antibodies (Molecular Probes, Eugene, Oreg.) and mounted with DAPI (Invitrogen) to stain nuclear material. Images were acquired using: a Nikon TE2000S epifluorescence microscope, Nikon DsFi1 digital camera and Nikon NIS-Elements imaging software. Multiple images were taken at high resolution across the tumor and digitally merged to make a single margin-to-margin overview of the tumor.
# [1] = test system: peripheral blood immune cells; experiment: Quantitative flow cytometry of peripheral blood after immunochemotherapy
# Protocol: For analysis of tumor-infiltrating cells, the tumor was dissected into approximately 2 mm fragments followed by agitation in lmg/mL collagenase (Invitrogen), 100μg/mL hyaluronidase (Sigma, St Louis, Mo.), and 20 mg/mL DNase (Sigma) in PBS for 1 hour at room temperature. The digest was filtered through 100 μm nylon mesh to remove macroscopic debris. For flow cytometry analysis of infiltrating cells, cell suspensions were washed and stained with directly conjugated fluorescent antibodies. For analysis of lymph nodes, lymph nodes were crushed, washed and surface stained, then cells were washed and fixed using a T regulatory cell staining kit (EBioscience) and stained for transcription factors. To measure cytokine responses, lymph node cells were plated to wells pre-coated with 1 μg/ml anti-CD3 for 4 hours in the presence of Golgiplug (BD biosciences). Cells were then surface stained, washed and fixed using a T regulatory cell staining kit (EBioscience) before intracellular cytokine staining. For analysis of cell numbers in blood, whole blood was harvested into ethylenediaminetetraacetic acid (EDTA) tubes from live mice via the saphenous vein, and 5-25 μl of fresh blood was stained directly with fluorescent antibody cocktails (see, Crittenden et al., PLoS One, 2013. 8(7): e69527). A known number of AccuCheck fluorescent beads (Invitrogen) were added to each sample, then red blood cells were lysed with Cal-Lyse whole blood lysing solution (Invitrogen), and samples analyzed on a BD LSRII flow cytometer. The absolute number of cells in the sample was determined based on comparing cellular events to bead events (cells/μl).
# [2] = following one cycle of chemoimmunotherapy
smiles,measurement,setting,value
Nc1ccn([C@@H]2O[C@H](CO)[C@@H](O)C2(F)F)c(=O)n1 [gemcitabine],survival,Panc02 tumors,significantly extended survival
same,tumor growth,Panc02 tumors,transient tumor delay
same,macrophage infiltration throughout the tumor,F4/80+ macrophages,increased
same,T cell populations in peripheral blood,[1]; following chemotherapy,not decreased
same,CD11b+Gr1hi neutrophils in the peripheral blood,[1]; [2],significantly decreased
same,CD11b+Ly6C+Ly6Glo immature myeloid cells in the peripheral blood,[1]; [2],significantly decreased
